Columns and labels:
CYP1A = biological target: T1, CYP1A (Homo sapiens, UniProt P05177); test: CYP inhibition in human liver microsomes, CYP1A; type: in vitro ADME; settings: probe phenacetin, substrate phenacetin, read-out: CYP1A Inh %
T1 construct: incubated with human liver microsomes; tissue Eurofins ITEMG232; host or cells: human liver microsomes
T1 sequence (P05177 1-516): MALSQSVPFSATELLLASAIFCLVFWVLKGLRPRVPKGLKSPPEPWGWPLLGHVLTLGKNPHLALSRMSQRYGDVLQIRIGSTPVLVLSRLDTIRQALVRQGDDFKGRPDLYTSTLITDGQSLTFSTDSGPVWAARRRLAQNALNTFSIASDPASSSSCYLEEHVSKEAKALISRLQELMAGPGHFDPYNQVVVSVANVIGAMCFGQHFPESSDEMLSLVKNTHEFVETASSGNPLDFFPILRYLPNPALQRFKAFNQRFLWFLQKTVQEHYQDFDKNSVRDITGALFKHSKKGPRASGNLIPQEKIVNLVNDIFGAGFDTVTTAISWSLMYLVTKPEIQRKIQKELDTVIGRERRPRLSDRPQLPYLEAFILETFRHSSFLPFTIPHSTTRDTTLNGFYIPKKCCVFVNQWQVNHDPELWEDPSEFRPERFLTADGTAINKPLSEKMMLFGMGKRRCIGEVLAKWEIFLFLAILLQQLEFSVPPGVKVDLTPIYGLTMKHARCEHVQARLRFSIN
Protocol: (§1) The following substrates were used: CYP1A phenacetin, CYP2B6 bupropion, CYP2C8 paclitaxel and amodiaquine, CYP2C9 diclofenac, CYP2C19 omeprazole, CYP2D6 dextromethorphan, CYP3A midazolam and testosterone. At the end of the incubation, the formation of metabolite was monitored by HPLC-MS/MS as the peak area response.

CYP2B6 = biological target: T2, CYP2B6 (Homo sapiens, UniProt P20813); test: CYP inhibition in human liver microsomes, CYP2B6; type: in vitro ADME; settings: probe bupropion, substrate bupropion, read-out: CYP2B6 Inh %
T2 construct: incubated with human liver microsomes; tissue Eurofins ITEMG232; host or cells: human liver microsomes
T2 sequence (P20813 1-491): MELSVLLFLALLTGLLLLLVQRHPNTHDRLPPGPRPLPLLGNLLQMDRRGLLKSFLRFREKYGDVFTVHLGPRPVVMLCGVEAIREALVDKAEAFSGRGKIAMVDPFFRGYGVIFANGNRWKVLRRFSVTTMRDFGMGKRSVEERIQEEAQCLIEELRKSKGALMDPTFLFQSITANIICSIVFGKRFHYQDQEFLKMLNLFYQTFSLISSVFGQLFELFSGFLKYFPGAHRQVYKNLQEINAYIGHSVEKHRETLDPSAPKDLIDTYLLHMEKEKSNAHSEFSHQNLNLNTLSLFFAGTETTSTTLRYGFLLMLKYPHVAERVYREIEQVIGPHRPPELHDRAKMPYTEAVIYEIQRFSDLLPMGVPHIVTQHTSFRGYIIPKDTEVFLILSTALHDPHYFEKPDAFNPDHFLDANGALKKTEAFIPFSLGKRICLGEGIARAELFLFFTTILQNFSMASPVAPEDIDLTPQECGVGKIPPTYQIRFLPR
Protocol: as §1

Cc1nccn1Cc1ccc(-c2cc(CC(C)C)sc2S(=O)(=O)NC(=O)NCc2ccccn2)cc1 [Example 2, 3-(5-isobutyl-3-{p-[(2-Methyl-1H-imidazol-1-yl)methyl]phenyl}-2-thienylsulfonyl)-1-[(2-pyridyl)methyl]urea]
inhibition at 10 µM (CYP1A): 5%
inhibition at 10 µM (CYP2B6): 8.2%

Cc1nccn1Cc1ccc(-c2cc(CC(C)C)sc2S(=O)(=O)NC(=O)NC(C)c2ccccn2)cc1F (stereo not drawn) [Example 25, 3-(3-{3-Fluoro-4-[(2-methyl-1H-imidazol-1-yl)methyl]phenyl}-5-isobutyl-2-thienylsulfonyl)-1-[1-(2-pyridyl)ethyl]urea]
inhibition at 10 µM (CYP1A): 8%
inhibition at 10 µM (CYP2B6): 23%

CC(C)Cc1cc(-c2ccc(Cn3ccnc3C(C)C)c(F)c2)c(S(=O)(=O)NC(=O)NCCC(F)(F)F)s1.O=C(O)C(F)(F)F [Example 41, 1-{[3-(3-fluoro-4-{[2-(propan-2-yl)-1H-imidazol-1-yl]methyl}phenyl)-5-(2-methylpropyl)thiophen-2-yl]sulfonyl}-3-(3,3,3-trifluoropropyl)urea trifluoroacetic acid]
inhibition at 10 µM (CYP1A): 5%
inhibition at 10 µM (CYP2B6): 30%

Cc1nccn1Cc1ccc(-c2cc(CC(C)C)sc2S(=O)(=O)NC(=O)NCc2ccccc2)cc1 [Example 1, 1-benzyl-3-[[5-isobutyl-3-[4-[(2-methylimidazol-1-yl)methyl]phenyl]-2-thienyl]sulfonyl]urea]
inhibition at 10 µM (CYP1A): 7.3%
inhibition at 10 µM (CYP2B6): 19%

Cc1nccn1Cc1ccc(-c2cc(CC(C)C)sc2S(=O)(=O)NC(=O)NCCC(F)(F)F)cc1F [Example 14, 3-(3-{3-Fluoro-4-[(2-methyl-1H-imidazol-1-yl)methyl]phenyl}-5-isobutyl-2-thienylsulfonyl)-1-(3,3,3-trifluoropropyl)urea]
inhibition at 10 µM (CYP1A): 13%
inhibition at 10 µM (CYP2B6): 43%

CCc1nccn1Cc1ccc(-c2cc(CC(C)C)sc2S(=O)(=O)NC(=O)NCCOC)cc1 [Example 7, 3-(3-{p-[(2-Ethyl-1H-imidazol-1-yl)methyl]phenyl}-5-isobutyl-2-thienylsulfonyl)-1-(2-methoxy-ethyl)urea]
inhibition at 10 µM (CYP1A): 10.6%
inhibition at 10 µM (CYP2B6): -0.4%

CCc1nccn1Cc1ccc(-c2cc(CC(C)C)sc2S(=O)(=O)NC(=O)NCc2ccc(F)cc2)cc1F.O=C(O)C(F)(F)F [Example 32, 3-[(3-{4-[(2-ethyl-1H-imidazol-1-yl)methyl]-3-fluorophenyl}-5-(2-methylpropyl)thiophen-2-yl)sulfonyl]-1-[(4-fluorophenyl)methyl] urea trifluoroacetic acid]
inhibition at 10 µM (CYP1A): -26%
inhibition at 10 µM (CYP2B6): 25%

Cc1nccn1Cc1ccc(-c2cc(CC(C)C)sc2S(=O)(=O)NC(=O)NCc2cc(Cl)ccn2)cc1F.O=C(O)C(F)(F)F [Example 38, 1-[(4-chloropyridin-2-yl)methyl]-3-[(3-{3-fluoro-4-[(2-methyl-1H-imidazol-1-yl)methyl]phenyl}-5-(2-methylpropyl)thiophen-2-yl)sulfonyl]urea trifluoroacetic acid]
inhibition at 10 µM (CYP1A): 13%
inhibition at 10 µM (CYP2B6): 25%

Cc1nccn1Cc1ccc(-c2cc(CC(C)C)sc2S(=O)(=O)NC(=O)NCc2ccccn2)cc1F [Example 13, 3-(3-{3-Fluoro-4-[(2-methyl-1H-imidazol-1-yl)methyl]phenyl}-5-isobutyl-2-thienylsulfonyl)-1-[(2-pyridyl)methyl]urea]
inhibition at 10 µM (CYP1A): 16%
inhibition at 10 µM (CYP2B6): 3%

Cc1nccn1Cc1ccc(-c2cc(CC(C)C)sc2S(=O)(=O)NC(=O)NCc2ccc(F)c(F)c2)cc1F.O=C(O)C(F)(F)F [Example 34, 1-[(3,4-difluorophenyl)methyl]-3-[(3-{3-fluoro-4-[(2-methyl-1H-imidazol-1-yl)methyl]phenyl}-5-(2-methylpropyl)thiophen-2-yl)sulfonyl]urea trifluoroacetic acid]
inhibition at 10 µM (CYP1A): -6%
inhibition at 10 µM (CYP2B6): 57%

CCCNC(=O)NS(=O)(=O)c1sc(CC(C)C)cc1-c1ccc(Cn2ccnc2CC)c(F)c1.O=C(O)C(F)(F)F [Example 33, 1-[(3-{4-[(2-ethyl-1H-imidazol-1-yl)methyl]-3-fluorophenyl}-5-(2-methylpropyl)thiophen-2-yl)sulfonyl]-3-propylurea trifluoroacetic acid]
inhibition at 10 µM (CYP1A): 14%
inhibition at 10 µM (CYP2B6): 37%

Cc1nccn1Cc1ccc(-c2cc(CC(C)C)sc2S(=O)(=O)NC(=O)NCC(C)C)cc1F.O=C(O)C(F)(F)F [Example 39, 1-[(3-{3-fluoro-4-[(2-methyl-1H-imidazol-1-yl)methyl]phenyl}-5-(2-methylpropyl)thiophen-2-yl)sulfonyl]-3-(2-methylpropyl)urea trifluoroacetic acid]
inhibition at 10 µM (CYP1A): -2%
inhibition at 10 µM (CYP2B6): 28%

Cc1nccn1Cc1ccc(-c2cc(CC(C)C)sc2S(=O)(=O)NC(=O)NCc2nccn2C)cc1F [Example 15, 1-(3-{3-Fluoro-4-[(2-methyl-1H-imidazol-1-yl)methyl]phenyl}-5-isobutyl-2-thienylsulfonyl)-3-[(1-methyl-1H-imidazol-2-yl)methyl]urea]
inhibition at 10 µM (CYP1A): 20%
inhibition at 10 µM (CYP2B6): 63%

CCc1nccn1Cc1ccc(-c2cc(CC(C)C)sc2S(=O)(=O)NC(=O)NCc2ccccc2)cc1 [Example 6, 1-Benzyl-3-(3-{p-[(2-ethyl-1H-imidazol-1-yl)methyl]phenyl}-5-isobutyl-2-thienylsulfonyl)-urea]
inhibition at 10 µM (CYP1A): 6.8%
inhibition at 10 µM (CYP2B6): 18.1%

CCCCNC(=O)NS(=O)(=O)c1sc(CC(C)C)cc1-c1ccc(Cn2ccnc2C)cc1 [Example 4, 1-Butyl-3-(5-isobutyl-3-{p-[(2-methyl-1H-imidazol-1-yl)methyl]phenyl}-2-thienylsulfonyl)-urea]
inhibition at 10 µM (CYP1A): 10.5%
inhibition at 10 µM (CYP2B6): 12.7%

Cc1nccn1Cc1ccc(-c2cc(CC(C)C)sc2S(=O)(=O)NC(=O)NCC2CCC(F)(F)CC2)cc1F.O=C(O)C(F)(F)F [Example 40, 1-[(4,4-difluorocyclohexyl)methyl]-3-[(3-{3-fluoro-4-[(2-methyl-1H-imidazol-1-yl)methyl]phenyl}-5-(2-methylpropyl)thiophen-2-yl)sulfonyl]urea trifluoroacetic acid]
inhibition at 10 µM (CYP1A): -1%
inhibition at 10 µM (CYP2B6): 54%

Cc1nccn1Cc1ccc(-c2cc(CC(C)C)sc2S(=O)(=O)NC(=O)NCCCC(F)(F)F)cc1 [Example 5, 3-(5-isobutyl-3-{p-[(2-Methyl-1H-imidazol-1-yl)methyl]phenyl}-2-thienylsulfonyl)-1-(4,4,4-trifluorobutyl)-urea]
inhibition at 10 µM (CYP1A): 7.3%
inhibition at 10 µM (CYP2B6): 9.6%

Cc1nccn1Cc1ccc(-c2cc(CC(C)C)sc2S(=O)(=O)NC(=O)NCc2cccs2)cc1F.O=C(O)C(F)(F)F [Example 35, 1-[(3-{3-fluoro-4-[(2-methyl-1H-imidazol-1-yl)methyl]phenyl}-5-(2-methylpropyl)thiophen-2-yl)sulfonyl]-3-[(thiophen-2-yl)methyl]urea trifluoroacetic acid]
inhibition at 10 µM (CYP1A): 20%
inhibition at 10 µM (CYP2B6): 46%
